Some results are limits rather than exact numbers.

One test deals with MCF-7. Description: MTT anti-proliferative assay, MCF-7. As to conditions: for IC50: 72 h of exposure, MTT, mean ± S.D. of three observations; for selectivity index (SI) MCF-7: IC50 MCF 10A/IC50 MCF-7, 72 h of exposure. It counts as cell-based, human. The procedure:
(§1) The cytotoxic effect of the synthesized compounds was estimated against human breast cancer cell lines (MCF-7 and MDA-MB231).
(§2) MTT (3-[4,5-dimethylthiazol-2-yl]-2,5 diphenyltetrazolium bromide) assay was used to study the anticancer activity of all derivatives against breast cancer cells MCF-7and MDAMB231 (obtained from ATCC, Manassas, VA, USA). […] Briefly, cells plated onto 96-well plates (5000 cells/well) were allowed to adhere and form a semi-confluent monolayer. After 24 h, the cells were treated with different concentrations of derivatives (0–100 µM) for 72 h. After the exposure, cytotoxicity was assessed following the MTT Assay Kit protocol (Abcam, Cambridge, UK) as reported earlier.

A further test deals with MDA-MB-231. Nature of the test: MTT anti-proliferative assay, MDA-MB-231. It counts as cell-based, human. The conditions noted are these: for IC50: Homo sapiens, MDA-MB-231, 72 h of exposure, MTT, mean ± S.D. of three observations; for selectivity index (SI) MDA-MB231: IC50 MCF 10A/IC50 MDA-MB231, 72 h of exposure. The procedure:
as §1, §2

Test [1] deals with MCF-10A (Non-Tumorigenic Cells). Nature of the test: MTT cytotoxicity on non-tumorigenic MCF-10A cells. It counts as cell-based. As to conditions: Homo sapiens, 72 h of exposure, mean ± S.D. of three observations. The procedure:
MTT (3-[4,5-dimethylthiazol-2-yl]-2,5 diphenyltetrazolium bromide) assay was used to study the anticancer activity of all derivatives against breast cancer cells MCF-7and MDAMB231 (obtained from ATCC, Manassas, VA, USA). […] Briefly, cells plated onto 96-well plates (5000 cells/well) were allowed to adhere and form a semi-confluent monolayer. […] After the exposure, cytotoxicity was assessed following the MTT Assay Kit protocol (Abcam, Cambridge, UK) as reported earlier.
The selectivity ratio in non-cancerous cells (MCF10A) versus cancer cells (MCF-7 and MDAmb231) was calculated as reported in [26, 27] using the following equation: SI = IC50 of normal cells/IC50 of cancer cells.

The target of the next test is T1, FGFR-1 (Homo sapiens, UniProt P11362).
T1 construct: host or cells: MDA-MB-231
Nature of the test: FGFR-1 inhibitory activity (FGFR-1 ELISA Kit, MDA-MB-231 cell lysates). It counts as biochemical. The procedure: To determine basal FGFR-1 activity, a FGFR-1 ELISA Kit was used according to the protocol of the manufacturer (G-Biosciences, Saint Louis, MO, USA). […] After 90 min of incubation at 37 °C, 100 μL Biotinylated Detection Antibody was added and incubated for 60 min. After washing twice each with washing buffer, 100 μL ELISA Detection Reagent was added to each well and incubated for 30 min. After washing, 90 μL of Detection Substrate (TMB) was added to visualize the enzymatic reaction. TMB was catalyzed to produce a blue color that changed into yellow after adding 50 μL of acidic stop solution. The density of yellow is directly proportional to the concentration of FGFR-1 captured on the plate using a Varioskan TM LUX multimode microplate reader (Thermo Scientific, Waltham, MA, USA).

The next test deals with Caspase-3. Description: Caspase-3 colorimetric activity assay (Ac-DEVD-pNA) in MDA-MB-231 cells. It counts as cell-based, human. As to conditions: predetermined IC50 of compound, 24 h. The procedure: To further explore the cytotoxicity of the prepared hybrids, their influence on Caspase-3 activity was examined. MDA-MB-231 cells were incubated with the predetermined IC50s of tested compounds for a duration of 24 h.
Caspase-3 activity was assessed with a colorimetric assay based on the hydrolysis of acetyl–Asp–Glu–Val–Asp p-nitroanilide (Ac-DEVD-pNA) by Caspase-3 and releasing p-nitroaniline (pNA). MDA-MB-231 cell lysates (100 ng/mL) were diluted and subjected to analysis via Caspase-3 Colorimetric Assay Kit (Sigma-Aldrich, Saint Louis, MO, USA) based on the protocol of the manufacturer. The reaction for color development was held at 37 °C for 2 h, and the value of OD405 was determined using a Varioskan TM LUX multimode microplate reader (Thermo Scientific, Waltham, MA, USA). Each caspase-3 activity was expressed as a value of OD405.

Another test has as its system MDA-MB-231 cells. Description: Annexin V-FITC/PI flow cytometric apoptosis analysis. Type of test: cell-based, human. As to conditions: MDA-MB-231, Annexin V-FITC/PI, predetermined IC50. The procedure: Apoptosis and necrosis are two routes that make up the overall division of the cell death pathway carried out by anticancer agents. A double labeling flow cytometry assay using Annexin V-FITC/propidium iodide was performed to identify which mechanism, necrosis, or apoptosis is responsible for cell death.
Apoptosis was detected after 48 h of cell culture using V-FITC apoptosis detection kit (BD Pharmingen TM, Franklin Lakes, NJ, USA). […] After treatment, cells were collected, washed with ice-cold PBS and centrifuged at 200× g for 5 min. The cell pellet was suspended in 200 μL of annexin V-FITC/PI solution for 15 min in the dark. The stained and Annexine V propidium iodide negative cells were evaluated via CytoFLEX flow cytometry (Beckman Coulter, Brea, CA, USA). Ten thousand cells (gated events) were captured for each sample. The mean fluorescence intensity was analyzed with Cytoexpert (Beckman Coulter).

T1 sequence (P11362 22-822): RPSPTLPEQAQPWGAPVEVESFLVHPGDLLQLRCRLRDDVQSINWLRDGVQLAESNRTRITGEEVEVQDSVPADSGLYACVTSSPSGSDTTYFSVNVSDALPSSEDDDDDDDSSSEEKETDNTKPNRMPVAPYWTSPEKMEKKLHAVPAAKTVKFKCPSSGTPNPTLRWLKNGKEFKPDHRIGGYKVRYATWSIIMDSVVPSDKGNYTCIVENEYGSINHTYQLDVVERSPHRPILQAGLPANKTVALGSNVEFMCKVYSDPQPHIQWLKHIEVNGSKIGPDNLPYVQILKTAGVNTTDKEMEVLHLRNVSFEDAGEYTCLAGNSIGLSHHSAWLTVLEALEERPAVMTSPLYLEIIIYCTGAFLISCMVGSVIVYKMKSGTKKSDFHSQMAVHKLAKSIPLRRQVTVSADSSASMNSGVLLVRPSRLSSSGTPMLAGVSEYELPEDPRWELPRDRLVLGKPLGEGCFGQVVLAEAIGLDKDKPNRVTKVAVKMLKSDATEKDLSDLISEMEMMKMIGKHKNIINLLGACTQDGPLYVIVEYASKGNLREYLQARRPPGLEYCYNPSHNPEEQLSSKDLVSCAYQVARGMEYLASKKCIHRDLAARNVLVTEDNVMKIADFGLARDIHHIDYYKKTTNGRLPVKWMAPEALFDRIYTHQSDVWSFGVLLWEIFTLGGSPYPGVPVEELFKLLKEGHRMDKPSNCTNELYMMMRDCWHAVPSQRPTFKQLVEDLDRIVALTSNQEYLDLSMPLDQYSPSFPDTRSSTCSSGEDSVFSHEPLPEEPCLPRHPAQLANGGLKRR

As for `CCOC(=O)c1sc2ncnc(Cl)c2c1C` [Compound 3b], the IC50 in the test on MCF-7 was 9.74 ± 0.13 µM; in the test with MCF-7 (Homo sapiens, MCF7, 72 h) it was less than 10 µM; in the test on MDA-MB-231, 4.45 ± 0.31 µM; in test [1] it was 265 ± 4.2 µM; against FGFR-1 it was 179 ± 5.6 µM. In addition, the “selectivity index (SI) MCF-7” value with MCF-7 came out at 27.20. Besides, the “selectivity index (SI) MDA-MB231” value in the test on MDA-MB-231 turned out to be 59.45. Also, in the test with Caspase-3, the “Caspase-3 activity fold change vs control cells” value was 2.3 fold. The “increase of population of late apoptotic cells” value with MDA-MB-231 cells is listed as 4.8 fold. The “increase of population of necrotic cells” value with MDA-MB-231 cells turned out to be 5.5 fold.

As to `N=C(N)NS(=O)(=O)c1ccc(Nc2ncnc3sc4c(c23)CCCC4)cc1` [Compound 4ai, N-carbamimidoyl-4-((5,6,7,8-tetrahydrobenzo[4,5]thieno[2,3-d]pyrimidin-4-yl)amino) benzenesulfonamide], the IC50 is 35.8 ± 1.2 µM in the test with MCF-7 (Homo sapiens, MCF7, 72 h); 40.2 ± 2.7 µM in the test on MDA-MB-231; 458 ± 12.3 µM in test [1]; 132 ± 4.3 µM against FGFR-1. In addition, the “selectivity index (SI) MCF-7” value in the test with MCF-7 worked out at 12.79. In the test with MDA-MB-231, the “selectivity index (SI) MDA-MB231” value is on record as 11.40.

As for `O=S(=O)(Nc1ncccn1)c1ccc(Nc2ncnc3sc4c(c23)CCCC4)cc1` [Compound 4aii, N-(pyrimidin-2-yl)-4-((5,6,7,8-tetrahydrobenzo[4,5]thieno[2,3-d]pyrimidin-4-yl)amino)benzenesulfonamide], the IC50 is 22.3 ± 3.1 µM in the test on MCF-7 (Homo sapiens, MCF7, 72 h); 20.2 ± 1.5 µM in the test with MDA-MB-231; greater than 1000 µM in test [1]; 119 ± 5.6 µM on FGFR-1.

Consider `Cc1cc(NS(=O)(=O)c2ccc(Nc3ncnc4sc5c(c34)CCCC5)cc2)no1` [Compound 4aiii, N-(5-methylisoxazol-3-yl)-4-((5,6,7,8-tetrahydrobenzo[4,5]thieno[2,3-d]pyrimidin-4-yl)amino)benzenesulfonamide], for which the IC50 with MCF-7 (Homo sapiens, MCF7, 72 h) came out at 67.1 ± 15.7 µM; with MDA-MB-231, 68.3 ± 4.6 µM; in test [1] it was 88.5 ± 10.1 µM; on FGFR-1 it was 159 ± 5.3 µM. For the same compound, in the test with MCF-7, the “selectivity index (SI) MCF-7” value was 1.32. Further, the “selectivity index (SI) MDA-MB231” value in the test with MDA-MB-231 is listed as 1.29.

With `CCOC(=O)c1sc2ncnc(Nc3ccc(S(=O)(=O)NC(=N)N)cc3)c2c1C` [Compound 4bi, Ethyl-4-((4-(N-carbamimidoylsulfamoyl)phenyl)amino)-5-methylthieno[2,3-d]pyrimidine-6-carboxylate], the IC50 with MCF-7 is 6.17 ± 1.3 µM; in the test on MCF-7 (Homo sapiens, MCF7, 72 h), less than 10 µM; in the test with MDA-MB-231, 8.68 ± 4.3 µM; in test [1], 277 ± 7.9 µM; at FGFR-1, 326 ± 7.4 µM. For the same compound, in the test on MCF-7, the “selectivity index (SI) MCF-7” value is reported as 44.86. For the same compound, the “selectivity index (SI) MDA-MB231” value in the test on MDA-MB-231 amounted to 31.90.

For `CCOC(=O)c1sc2ncnc(Nc3ccc(S(=O)(=O)Nc4ncccn4)cc3)c2c1C` [Compound 4bii, Ethyl-5-methyl-4-((4-(N-(pyrimidin-2-yl)sulfamoyl)phenyl)amino)thieno[2,3-d]pyrimidine-6-carboxylate], the IC50 was determined as 14 ± 8.2 µM in the test on MCF-7 (Homo sapiens, MCF7, 72 h); 15.57 ± 0.1 µM in the test with MDA-MB-231; 230 ± 24.1 µM in test [1]; 289 ± 12 µM at FGFR-1. The “selectivity index (SI) MCF-7” value in the test with MCF-7 stood at 16.45. Moreover, the “selectivity index (SI) MDA-MB231” value with MDA-MB-231 is 14.77.

In the case of `CCOC(=O)c1sc2ncnc(Nc3ccc(S(=O)(=O)Nc4cc(C)on4)cc3)c2c1C` [Compound 4biii, Ethyl-5-methyl-4-((4-(N-(5-methylisoxazol-3-yl)sulfamoyl)phenyl)amino) thieno[2,3-d]pyrimidine-6-carboxylate], the IC50 in the test with MCF-7 was 9.54 ± 3.1 µM; in the test with MCF-7 (Homo sapiens, MCF7, 72 h), less than 10 µM; with MDA-MB-231 it was 17.6 ± 2.3 µM; in test [1] it was 244.5 ± 1.9 µM; on FGFR-1, 168 ± 8.3 µM. Also, the “selectivity index (SI) MCF-7” value in the test on MCF-7 worked out at 25.62. The “selectivity index (SI) MDA-MB231” value in the test with MDA-MB-231 was 13.86.

Take `COc1cccc2c1C(=O)c1c(O)c3c(c(O)c1C2=O)C[C@@](O)(C(=O)CO)C[C@@H]3O[C@H]1C[C@H](N)[C@H](O)[C@H](C)O1` [Doxorubicin, reference compound]: the IC50 with MCF-7 (Homo sapiens, MCF7, 72 h) was determined as 1.6 ± 2.2 µM; with MDA-MB-231, 2.2 ± 0.3 µM.

The values above are taken from article PMC10341658, “In Silico Screening and Anticancer-Apoptotic Evaluation of Newly Synthesized Thienopyrimidine/Sulfonamide Hybrids” (International Journal of Molecular Sciences, 2023).
